≈ marks a conversion by molar mass, not a printed value. Where a name gives a salt, the structure may show the parent alone.
Experiments:
[1] = target: class A β-lactamase TEM-1 (Escherichia coli, UniProt P62593); experiment: β-Lactamase inhibition IC50 (nitrocefin, spectrophotometric); type: biochemical, E. coli; conditions: enzyme 4.3 nM, 10 min preincubation at 25° C.
Experimental: β-Lactamase inhibitory activity of the penem inhibitors was determined spectrophotometrically as described by Bush et al., [Bush, K., Macalintal, C., Rasmussen, B. A., Lee, V. and Yang, Y. Antimicrobial Agents and Chemotherapy 1993, 37, 851]. Homogeneously purified class A β-lactamases TEM-1 from E. coli and Imi-1 from Enterobacter cloacae, class B enzyme CcrA from Bacteroides fragilis and class C enzyme AmpC from Enterobacter cloacae were employed in the assay. The enzyme concentrations for TEM-1, Imi-1, CcrA and AmpC were 4.3, 7.1, 1.2 and 2.1 nM, respectively. A wide range of inhibitor concentrations were prepared in 50 mM PO4, pH 7.0 to include the possible IC50 values. The substrate used to initiate the enzyme reaction was nitrocefin at 50 μg/ml in the same buffer as the inhibitor. Initially the enzyme and inhibitor (20 μl each) were preincubated for 10 minutes at 25° C. prior to the addition of 160 μl volume of nitrocefin. Initial rates of hydrolysis were monitored for 5 minutes at 495 nm using a Molecular Devices Spectra Max 250 with kinetic protocol of SoftMax Program. Readings from the Spectra Max 250 were exported and transferred to Microsoft Excel. The percent of inhibition of each inhibitor concentration was calculated based on the control enzyme activity. The inhibitor concentration that caused a 50% reduction in the enzymatic activity (IC50) was determined graphically.

[2] = system: A. baumannii GC 7685 TEM-1; experiment: MIC microbroth dilution; β-lactamase class A; type: cell-based
Experimental: (§1) The in vitro activities of the antibiotics were determined by the microbroth dilution method as recommended by the National Committee for Clinical Laboratory Standards (NCCLS). (NCCLS. 2000. Methods for Dilution Antimicrobial Susceptibility Tests for Bacteria That Grow Aerobically; Approved Standards: M7-A5, vol. 19. National Committee for Clinical Laboratory Standards, Villanova, Pa.). Mueller-Hinton II broth (MHBII)(BBL Cockeysville, Md.), was used for the testing procedure. […]. The plates were incubated for 18-22 hours at 35° C. in ambient air.

E. coli ATCC 35218 TEM-1 = experiment: MIC microbroth dilution; β-lactamase class A; type: cell-based
Experimental: as §1

[3] = system: E. coli LSU 80-8 GC 6265 TEM-1; experiment: MIC microbroth dilution; β-lactamase class A; type: cell-based; conditions: E. coli GC 6265; Cefepime + 4 ug/ml Compound 1
Experimental: as §1

E. coli GC 2009 (TEM-10) = experiment: MIC microbroth dilution; β-lactamase class A (ESBL); type: cell-based
Experimental: as §1

K. pn GC 1827 (TEM-3) = experiment: as above; type: cell-based, K. pneumoniae; conditions: Cefepime + 4 ug/ml Compound 1
Experimental: as §1

E. coli GC 2253 (IRT-2) = experiment: MIC microbroth dilution; β-lactamase class A (IRT); type: cell-based
Experimental: as §1

E. coli GC 2906 (Imi-1) = experiment: MIC microbroth dilution; β-lactamase class A (Cb'ase); type: cell-based
Experimental: as §1

[4] = system: K. pneumoniae GC 7636 TEM-1 KPC-2 SHV-12; experiment: MIC microbroth dilution; β-lactamase class A, A (Cb'ase), A (ESBL); type: cell-based
Experimental: as §1

[5] = system: K. pneumoniae GC 7645 TEM-30 TEM-1 KPC-2 SHV-12; experiment: MIC microbroth dilution; β-lactamase class A, A (Cb'ase), A (ESBL), A(IRT); type: cell-based
Experimental: as §1

[6] = system: C. freundii GC 4187 Stably derepressed AmpC; experiment: MIC microbroth dilution; β-lactamase class C; type: cell-based
Outline: (§2)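 Under ambient air at 35° C., microdilution plates containing Mueller-Hinton II broth were incubated 18-22 hours, following NCCLS M7-A5 procedures.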

[7] = system: C. freundii PT 1499 Stably derepressed AmpC; experiment: MIC microbroth dilution; β-lactamase class C; type: cell-based
Outline: as §2

[8] = system: P. aeruginosa GC 4161 Stably derepressed AmpC; experiment: MIC microbroth dilution; β-lactamase class C; type: cell-based
Outline: as §2

[9] = system: S. marcescens GC 4132 Stably derepressed AmpC; experiment: MIC microbroth dilution; β-lactamase class C; type: cell-based
Outline: as §2

[10] = system: E. cloacae GC 1713 AmpC-constitutive; type: cell-based; conditions: Cefepime + 4 ug/ml Compound 1
Experimental: (§3) The in vitro activities of the antibiotics were determined by the microbroth dilution method as recommended by the National Committee for Clinical Laboratory Standards (NCCLS). (NCCLS. 2000. Methods for Dilution Antimicrobial Susceptibility Tests for Bacteria That Grow Aerobically; Approved Standards: M7-A5, vol. 19. National Committee for Clinical Laboratory Standards, Villanova, Pa.). Mueller-Hinton II broth (MHBII)(BBL Cockeysville, Md.), was used for the testing procedure. […] The plates were incubated for 18-22 hours at 35° C. in ambient air.

[11] = system: E. cloacae GC 7055 TEM-1, SHV-12 Amp C inducable; type: cell-based; conditions: Cefepime + 4 ug/ml Compound 1
Experimental: as §3

[12] = system: E. cloacae PT 197 Stably derepressed AmpC; type: cell-based; conditions: Cefepime + 4 ug/ml Compound 1
Experimental: as §3

[13] = system: P. aeruginosa PT 9025 PTZ-R; experiment: MIC microbroth dilution; type: cell-based
Experimental: as §1

[14] = system: A. baumannii GC 7692 TEM-1, AmpC; experiment: MIC microbroth dilution; β-lactamase class A, C; type: cell-based
Experimental: as §1

[15] = system: E. coli GC 2295 TEM-1 + AmpC; experiment: MIC microbroth dilution; β-lactamase class A, C; type: cell-based
Experimental: as §1

[16] = system: E. coli GC 2883 (OXA-10/PSE-2); experiment: MIC microbroth dilution; β-lactamase class D; type: cell-based
Experimental: as §1

[17] = system: A. baumannii PT 9444 PTZ-R; experiment: MIC microbroth dilution; β-lactamase class not determined; type: cell-based
Experimental: as §1

[18] = Escherichia coli, Cefepime alone, control of Compound 1 test
[19] = Citrobacter freundii, Cefepime alone, control of Compound 1 test
[20] = Cefepime alone, control of Compound 2 test

Sequence of class A β-lactamase TEM-1 (P62593 24-286 limits assumed): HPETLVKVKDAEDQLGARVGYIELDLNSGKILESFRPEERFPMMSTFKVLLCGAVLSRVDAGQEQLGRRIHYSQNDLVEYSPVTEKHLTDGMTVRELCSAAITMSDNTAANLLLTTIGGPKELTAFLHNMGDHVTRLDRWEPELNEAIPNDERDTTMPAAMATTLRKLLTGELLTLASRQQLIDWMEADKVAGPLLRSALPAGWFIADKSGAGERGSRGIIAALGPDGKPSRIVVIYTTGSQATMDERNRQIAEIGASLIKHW

O=C([O-])C1=CS[C@@H]2/C(=C\c3cn4c(n3)CCC4)C(=O)N12.[Na+] [Compound 1, (5R), (6Z)-6-(6,7-Dihydro-5H-pyrrolo[1,2-a]imidazol-2-ylmethylene)-7-oxo-4-thia-1-aza-bicyclo[3.2.0]hept-2-ene-2-carboxylic Acid, Sodium Salt]
IC50 [1]: 400 pM
MIC ([2]; A. baumannii GC 7685, Cefepime + 4 ug/ml Compound 1): 16 µg/mL
MIC (E. coli ATCC 35218 TEM-1; E. coli ATCC 35218, Cefepime + 4 ug/ml Compound 1): 0.03 µg/mL
MIC [3]: 0.03 µg/mL
MIC (E. coli GC 2009 (TEM-10); E. coli GC 2009, Cefepime + 4 ug/ml Compound 1): 0.12 µg/mL
MIC (K. pn GC 1827 (TEM-3)): 0.03 µg/mL
MIC (E. coli GC 2253 (IRT-2); Cefepime + 4 ug/ml Compound 1): 0.03 µg/mL
MIC (E. coli GC 2906 (Imi-1); Cefepime + 4 ug/ml Compound 1): 0.06 µg/mL
MIC ([4]; K. pneumoniae GC 7636, Cefepime + 4 ug/ml Compound 1): 16 µg/mL
MIC ([5]; K. pneumoniae GC 7645, Cefepime + 4 ug/ml Compound 1): >16 µg/mL
MIC ([6]; Cefepime + 4 ug/ml Compound 1): 0.12 µg/mL
MIC ([7]; Cefepime + 4 ug/ml Compound 1): 0.03 µg/mL
MIC ([8]; P. aeruginosa GC 4161, Cefepime + 4 ug/ml Compound 1): 16 µg/mL
MIC ([9]; Cefepime + 4 ug/ml Compound 1): 0.12 µg/mL
MIC [10]: 0.12 µg/mL
MIC [11]: 0.06 µg/mL
MIC [12]: 0.50 µg/mL
MIC ([13]; P. aeruginosa PT 9025, Cefepime + 4 ug/ml Compound 1): 16 µg/mL
MIC ([14]; A. baumannii GC 7692, Cefepime + 4 ug/ml Compound 1): >16 µg/mL
MIC ([15]; E. coli GC 2295, Cefepime + 4 ug/ml Compound 1): 0.12 µg/mL
MIC ([16]; Cefepime + 4 ug/ml Compound 1): 0.06 µg/mL
MIC ([17]; A. baumannii PT 9444, Cefepime + 4 ug/ml Compound 1): 16 µg/mL

CO/N=C(\C(=O)N[C@@H]1C(=O)N2C(C(=O)[O-])=C(C[N+]3(C)CCCC3)CS[C@H]12)c1csc(N)n1 [Cefepime, reference compound]
MIC ([2]; A. baumannii GC 7685, Cefepime alone, control of Compound 2 test): >16 µg/mL
MIC ([2]; Acinetobacter baumannii, GC7685TEM1): > 16 µg/mL
MIC (E. coli ATCC 35218 TEM-1; E. coli ATCC 35218, Cefepime alone, control of Compound 2 test): 0.03 µg/mL (≈ 0.0624 µM)
MIC (E. coli ATCC 35218 TEM-1; Escherichia coli, ATCC35218): 0.03 µg/mL (≈ 0.0624 µM)
MIC (E. coli GC 2009 (TEM-10); E. coli GC 2009, Cefepime alone, control of Compound 2 test): >16 µg/mL
MIC (E. coli GC 2009 (TEM-10); Escherichia coli): > 16 µg/mL
MIC (E. coli GC 2253 (IRT-2); [18]): 0.03 µg/mL (≈ 0.0624 µM)
MIC (E. coli GC 2906 (Imi-1); [18]): 0.5 µg/mL (≈ 1.04 µM)
MIC ([4]; K. pneumoniae GC 7636, Cefepime alone, control of Compound 2 test): >16 µg/mL
MIC ([4]; Klebsiella pneumoniae): > 16 µg/mL
MIC ([5]; K. pneumoniae GC 7645, Cefepime alone, control of Compound 2 test): >16 µg/mL
MIC ([5]; Klebsiella pneumoniae): > 16 µg/mL
MIC [6, 19]: 2 µg/mL (≈ 4.16 µM)
MIC [7, 19]: 4 µg/mL (≈ 8.32 µM)
MIC ([7]; Citrobacter freundii, Cefepime alone, control of Compound 2 test): 2 µg/mL (≈ 4.16 µM)
MIC ([8]; P. aeruginosa GC 4161, Cefepime alone, control of Compound 2 test): >16 µg/mL
MIC ([8]; Pseudomonas aeruginosa): > 16 µg/mL
MIC [9, 20]: 0.50 µg/mL (≈ 1.04 µM)
MIC ([13]; P. aeruginosa PT 9025, Cefepime alone, control of Compound 2 test): >16 µg/mL
MIC ([13]; Pseudomonas aeruginosa, PT9025PTZR): > 16 µg/mL
MIC ([14]; A. baumannii GC 7692, Cefepime alone, control of Compound 2 test): >16 µg/mL
MIC ([14]; Acinetobacter baumannii): > 16 µg/mL
MIC ([15]; E. coli GC 2295, Cefepime alone, control of Compound 2 test): 0.50 µg/mL (≈ 1.04 µM)
MIC ([15]; Escherichia coli): 0.5 µg/mL (≈ 1.04 µM)
MIC [16, 20]: 0.06 µg/mL (≈ 0.125 µM)
MIC ([17]; A. baumannii PT 9444, Cefepime alone, control of Compound 2 test): >16 µg/mL
MIC ([17]; Acinetobacter baumannii, PT9444PTZR): > 16 µg/mL

O=C(O)C1=CS[C@@H]2/C(=C\c3cn4c(n3)COCC4)C(=O)N12 [Compound 2, (5R), (6Z)-6-(5,6-Dihydro-8H-imidazo[2.1-c][1,4]oxazin-2-ylmethylene)-7-oxo-4-thia-1-azabicyclo[3.2.0]hept-2-ene-2-carboxylic Acid, Sodium Salt]
IC50 [1]: 600 pM

From patent US20070129344A1, “Bicyclic 6-alkylidene-penem beta-lactamase inhibitors and beta-lactam antibiotic combination: a broad spectrum antibiotic” (priority 2005, published 2007)
